Reference: ChEMBL document CHEMBL3600313, “Novel (pyrazolyl)benzenesulfonamides with a nitric oxide-releasing moiety as selective cyclooxygenase-2 inhibitors” (Bioorg Med Chem Lett, 2015)

Assays:
[1] = Nitric oxide release in phosphate-buffered-saline using 2,3-diaminonaphthlene at 50 uM after 90 mins by fluorescence assay
[2] = Nitric oxide release in phosphate-buffered-saline containing L-cysteine using 2,3-diaminonaphthlene at 50 uM after 90 mins by fluorescence assay
[3] = Nitric oxide release in phosphate-buffered-saline using 2,3-diaminonaphthlene at 50 uM after 90 mins by Griess assay
[4] = Nitric oxide release in phosphate-buffered-saline containing K3[Fe(CN)6] using 2,3-diaminonaphthlene at 50 uM after 90 mins by fluorescence assay
[5] = Nitric oxide release in phosphate-buffered-saline containing K3[Fe(CN)6] using 2,3-diaminonaphthlene at 50 uM after 90 mins by Griess assay
Serum = experiment: Nitric oxide release in rat serum using 2,3-diaminonaphthlene at 50 uM after 90 mins by Griess assay; assay type: ADME, cell-free; conditions: 1.5 h
Plasma = experiment: Nitric oxide release in human plasma using 2,3-diaminonaphthlene at 50 uM after 90 mins by fluorescence assay; assay type: ADME, cell-free; conditions: 1.5 h
[6] = biological target: T1, Prostaglandin G/H synthase 1 (Ovis aries, UniProt P05979); experiment: Inhibition of ovine COX-1 assessed as reduction of prostaglandin-G2 to prostaglandin-H2 and oxidation of 10-acetyl-3,7-dihydroxyphenoxazine to resorufin after 5 mins by fluorescence based assay
T1 sequence (P05979 whole entry): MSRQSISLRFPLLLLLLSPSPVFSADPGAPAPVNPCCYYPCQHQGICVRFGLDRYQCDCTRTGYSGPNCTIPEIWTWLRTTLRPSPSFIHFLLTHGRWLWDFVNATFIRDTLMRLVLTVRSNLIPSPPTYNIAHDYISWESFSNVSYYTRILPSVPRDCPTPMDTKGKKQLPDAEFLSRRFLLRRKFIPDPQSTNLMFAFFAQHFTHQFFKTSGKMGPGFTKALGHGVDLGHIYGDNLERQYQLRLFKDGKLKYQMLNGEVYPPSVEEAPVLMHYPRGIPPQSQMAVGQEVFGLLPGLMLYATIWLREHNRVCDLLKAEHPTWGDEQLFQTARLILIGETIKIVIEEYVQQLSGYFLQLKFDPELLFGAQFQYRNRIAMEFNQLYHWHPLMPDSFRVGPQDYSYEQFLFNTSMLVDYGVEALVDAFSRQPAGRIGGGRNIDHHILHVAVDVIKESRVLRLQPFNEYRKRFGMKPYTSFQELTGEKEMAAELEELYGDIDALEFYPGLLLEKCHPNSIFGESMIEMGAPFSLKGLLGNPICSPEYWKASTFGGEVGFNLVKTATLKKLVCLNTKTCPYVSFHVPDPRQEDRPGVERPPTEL

[7] = Nitric oxide release in phosphate-buffered-saline containing human plasma at 50 uM after 90 mins by fluorescence assay in presence of HgCl2
[8] = Chemical stability of the compound in aqueous solution after 9 days by HPLC analysis; assay type: physicochemical; conditions: buffer, 216 h
[9] = Selectivity index, ratio of IC50 for ovine COX-1 to IC50 for recombinant human COX-2
[10] = Nitric oxide release in phosphate-buffered-saline containing human plasma at 50 uM after 90 mins by fluorescence assay in absence of HgCl2
[11] = biological target: T2, Prostaglandin G/H synthase 2 (Homo sapiens, UniProt P35354); experiment: Inhibition of recombinant human COX-2 assessed as reduction of prostaglandin-G2 to prostaglandin-H2 and oxidation of 10-acetyl-3,7-dihydroxyphenoxazine to resorufin after 5 mins by fluorescence based assay
T2 sequence (P35354 whole entry): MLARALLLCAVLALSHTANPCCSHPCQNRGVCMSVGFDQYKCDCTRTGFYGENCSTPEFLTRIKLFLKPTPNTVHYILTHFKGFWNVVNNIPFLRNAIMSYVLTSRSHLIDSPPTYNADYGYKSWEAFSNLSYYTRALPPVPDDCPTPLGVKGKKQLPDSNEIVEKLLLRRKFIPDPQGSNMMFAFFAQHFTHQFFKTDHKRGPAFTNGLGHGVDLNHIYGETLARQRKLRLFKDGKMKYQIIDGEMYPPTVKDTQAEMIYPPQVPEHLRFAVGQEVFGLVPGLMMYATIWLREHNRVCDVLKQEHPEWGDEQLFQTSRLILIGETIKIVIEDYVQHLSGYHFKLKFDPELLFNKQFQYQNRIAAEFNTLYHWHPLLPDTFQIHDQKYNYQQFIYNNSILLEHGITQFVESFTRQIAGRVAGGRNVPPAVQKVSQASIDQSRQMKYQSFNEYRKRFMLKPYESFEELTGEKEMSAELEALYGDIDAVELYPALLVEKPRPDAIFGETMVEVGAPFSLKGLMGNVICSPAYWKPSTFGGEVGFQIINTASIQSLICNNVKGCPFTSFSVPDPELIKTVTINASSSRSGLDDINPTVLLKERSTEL

| SMILES | Activity [1] | Activity [2] | Activity [3] | Activity [4] | Activity [5] | Activity (Serum) | Activity (Plasma) | IC50 [6] | Activity [7] | Stability [8] | Ratio IC50 [9] | Activity [10] | IC50 [11] |
| --- | --- | --- | --- | --- | --- | --- | --- | --- | --- | --- | --- | --- | --- |
| O=S(=O)(NO)c1ccccc1 | 33.5% | 0.3% | 59.7% | 48.3% | 58.4% | 3.2% | 0.3% |  |  |  |  |  |  |
| Cc1ccc(-c2cc(CO[N+](=O)[O-])nn2-c2ccc(S(N)(=O)=O)cc2)cc1 |  | 1.2% |  | 0.6% |  |  | 0.3% | > 100 µM | 3.5% | Stable | > 112 | 0% | 0.89 µM |
| Cc1ccc(-c2cc(CCl)nn2-c2ccc(S(N)(=O)=O)cc2)cc1 |  |  |  |  |  |  |  | > 100 µM |  |  | > 103 |  | 0.97 µM |
| Cc1ccc(-c2c(Cl)c(CO[N+](=O)[O-])nn2-c2ccc(S(N)(=O)=O)cc2)cc1 |  | 0.8% |  |  |  |  | 0.5% | 61 µM | 3.5% |  | 218 | 0% | 0.28 µM |
| Cc1ccc(-c2cc(CO)nn2-c2ccc(S(N)(=O)=O)cc2)cc1 |  |  |  |  |  |  |  | > 100 µM |  | Stable | > 78.7 |  | 1.27 µM |
| Cc1ccc(-c2c(Cl)c(CCl)nn2-c2ccc(S(N)(=O)=O)cc2)cc1 |  |  |  |  |  |  |  | > 100 µM |  |  | > 454 |  | 0.22 µM |
| CC(=O)Oc1ccccc1C(=O)OCCCCO[N+](=O)[O-] |  | 0.8% |  | 0.2% |  |  | 1.4% | 65 µM |  |  | 1.4 |  | 45 µM |
